Source: ChEMBL document CHEMBL1765084, “Pyrimidine-2,4,6-trione derivatives and their inhibition of mutant SOD1-dependent protein aggregation. Toward a treatment for amyotrophic lateral sclerosis” (J Med Chem, 2011)
Converted amounts (≈) assume the structure as drawn. The source made the active and inactive calls. No cut-off for these calls is given here.

Columns and labels:
PC-12 [1] = assay: Cytoprotection against SOD1 G93A mutant induced cytotoxicity in rat PC12 cells assessed as reduction of protein aggregates by fluorescent assay; assay type: functional, cell-based
Caco-2 [2] = assay: Apparent Permeability across basolateral to apical side in human Caco2 cells at 50 uM after 2 hrs; conditions: caco-2, 2 h
Cytochrome P450 2D6 = Cytochrome P450 2D6 (Homo sapiens, UniProt P10635); assay: Inhibition of CYP2D6 in human liver microsomes; assay type: ADME, Microsome
Rattus norvegicus [3] = assay: AUC/dose in Sprague-Dawley rat at 1 mg/kg, iv; assay type: ADME, organism-based, Plasma; parameters: dose 1 mg/kg, route intravenous; conditions: in vivo
[4] = molecular target: D(3) dopamine receptor (Homo sapiens) (UniProt P35462); assay: Inhibition of dopamine D3 receptor at 10 uM by radioligand binding assay
PC-12 [5] = assay: Cytoprotection against SOD1 G93A mutant induced cytotoxicity in rat PC12 cells assessed as reduction of protein aggregates at 1 uM by fluorescent assay; assay type: functional, cell-based
Cytochrome P450 2C19 = Cytochrome P450 2C19 (Homo sapiens, UniProt P33261); assay: Inhibition of CYP2C19 in human liver microsomes
Plasma [6] = assay: Plasma protein binding in rat at 2 uM; assay type: ADME, cell-free
PC-12 [7] = assay: Cytoprotection against SOD1 G93A mutant induced cytotoxicity in rat PC12 cells assessed as reduction of protein aggregates at 10 uM by fluorescent assay in presence of proteasome inhibitor MG132; assay type: functional, cell-based
[8] = Inhibition of GABA transporter at 10 uM by radioligand binding assay
Cytochrome P450 1A2 = molecular target: T1, Cytochrome P450 1A2 (Homo sapiens, UniProt P05177); assay: Inhibition of CYP1A2 in human liver microsomes
T1 sequence (P05177 whole entry): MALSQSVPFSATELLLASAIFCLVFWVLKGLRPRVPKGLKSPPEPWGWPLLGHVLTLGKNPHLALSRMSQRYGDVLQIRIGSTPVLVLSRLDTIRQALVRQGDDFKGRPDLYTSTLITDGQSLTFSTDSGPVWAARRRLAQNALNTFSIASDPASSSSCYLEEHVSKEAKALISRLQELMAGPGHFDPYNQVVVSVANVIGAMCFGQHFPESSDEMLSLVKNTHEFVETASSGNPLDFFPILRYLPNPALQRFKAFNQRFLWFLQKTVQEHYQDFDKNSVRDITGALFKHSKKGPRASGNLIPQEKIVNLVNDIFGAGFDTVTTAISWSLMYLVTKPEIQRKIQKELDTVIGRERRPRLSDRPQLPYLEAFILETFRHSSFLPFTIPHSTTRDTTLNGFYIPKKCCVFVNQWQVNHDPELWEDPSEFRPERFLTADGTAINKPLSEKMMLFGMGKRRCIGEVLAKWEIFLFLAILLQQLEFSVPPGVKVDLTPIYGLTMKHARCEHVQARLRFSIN

Plasma [9] = assay: Plasma protein binding in human at 2 uM; assay type: ADME, cell-free
hERG (KCNH2) = hERG (KCNH2) (Homo sapiens, UniProt Q12809); assay: Inhibition of human ERG in cells at 10 uM by patch clamp assay relative to control; conditions: cells expressing human ERG
Rattus norvegicus [10] = assay: AUC last in Sprague-Dawley rat at 1 mg/kg, iv; assay type: ADME, organism-based, Plasma; parameters: time 0 - last, dose 1 mg/kg, route intravenous; conditions: in vivo
Cytochrome P450 2C9 = Cytochrome P450 2C9 (Homo sapiens, UniProt P11712); assay: Inhibition of CYP2C9 in human liver microsomes
[11] = molecular target: T2, Estrogen receptor (Homo sapiens) (UniProt P03372); assay: Inhibition of ER alpha receptor at 10 uM by radioligand binding assay
T2 sequence (whole entry): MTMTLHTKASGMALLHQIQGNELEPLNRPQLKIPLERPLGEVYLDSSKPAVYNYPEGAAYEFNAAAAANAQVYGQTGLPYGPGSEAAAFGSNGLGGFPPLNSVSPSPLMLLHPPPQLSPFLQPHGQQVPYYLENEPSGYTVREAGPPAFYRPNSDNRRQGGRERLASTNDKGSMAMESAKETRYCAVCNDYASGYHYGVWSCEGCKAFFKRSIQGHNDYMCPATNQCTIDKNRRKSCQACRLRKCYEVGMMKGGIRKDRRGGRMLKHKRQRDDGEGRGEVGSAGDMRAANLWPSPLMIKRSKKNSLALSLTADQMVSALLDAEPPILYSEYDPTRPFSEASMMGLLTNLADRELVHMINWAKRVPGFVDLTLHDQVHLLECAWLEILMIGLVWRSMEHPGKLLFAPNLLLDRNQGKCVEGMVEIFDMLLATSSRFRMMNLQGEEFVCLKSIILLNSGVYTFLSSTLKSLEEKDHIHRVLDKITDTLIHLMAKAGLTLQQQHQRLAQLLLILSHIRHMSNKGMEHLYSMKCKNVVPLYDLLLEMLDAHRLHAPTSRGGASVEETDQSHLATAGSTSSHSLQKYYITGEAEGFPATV

[12] = Inhibition of sodium channel site 2 at 10 uM by radioligand binding assay
Rattus norvegicus [13] = assay: AUC/dose in Sprague-Dawley rat at 1 mg/kg, po; assay type: ADME, organism-based, Plasma; parameters: dose 1 mg/kg, route oral; conditions: in vivo
Rattus norvegicus [14] = assay: Tmax in Sprague-Dawley rat at 1 mg/kg, po; assay type: ADME, organism-based; parameters: dose 1 mg/kg, route oral; conditions: in vivo
Cytochrome P450 3A4 = Cytochrome P450 3A4 (Homo sapiens, UniProt P08684); assay: Inhibition of CYP3A4 in human liver microsomes; assay type: ADME, Microsome
Liver = assay: Half life of the compound in B6SJL mouse liver microsome; conditions: microsomes
Rattus norvegicus [15] = assay: Half life in Sprague-Dawley rat at 1 mg/kg, iv; assay type: ADME, organism-based; parameters: dose 1 mg/kg, route intravenous; conditions: in vivo
Rattus norvegicus [16] = assay: Half life in Sprague-Dawley rat at 1 mg/kg, po; assay type: ADME, organism-based; parameters: dose 1 mg/kg, route oral; conditions: in vivo
Rattus norvegicus [17] = assay: Oral bioavailability in Sprague-Dawley rat at 1 mg/kg; assay type: ADME, organism-based; conditions: in vivo
Liver microsomes = assay: Half life of the compound in human liver microsomes
Rattus norvegicus [18] = assay: Cmax in Sprague-Dawley rat at 1 mg/kg, po; assay type: ADME, organism-based; parameters: dose 1 mg/kg, route oral; conditions: in vivo
Rattus norvegicus [19] = assay: Volume of distribution at steady state in Sprague-Dawley rat at 1 mg/kg, iv; assay type: ADME, organism-based; parameters: dose 1 mg/kg, route intravenous; conditions: in vivo
PC-12 [20] = assay: Cytoprotection against SOD1 G93A mutant induced cytotoxicity in rat PC12 cells after 24 hrs by fluorescent assay; assay type: functional, cell-based
Plasma [21] = assay: Half life in B6SJL mouse plasma by LC-MS/MS analysis
[22] = Ratio of permeability from basolateral to apical side over apical to basolateral side in human Caco2 cells; conditions: Caco-2
[23] = Solubility of the compound in PBS buffer after 16 hrs
Caco-2 [24] = assay: Apparent Permeability across apical side to basolateral side in human Caco2 cells at 50 uM after 2 hrs; conditions: caco-2, 2 h

Sequence of Cytochrome P450 2C9 (P11712 whole entry): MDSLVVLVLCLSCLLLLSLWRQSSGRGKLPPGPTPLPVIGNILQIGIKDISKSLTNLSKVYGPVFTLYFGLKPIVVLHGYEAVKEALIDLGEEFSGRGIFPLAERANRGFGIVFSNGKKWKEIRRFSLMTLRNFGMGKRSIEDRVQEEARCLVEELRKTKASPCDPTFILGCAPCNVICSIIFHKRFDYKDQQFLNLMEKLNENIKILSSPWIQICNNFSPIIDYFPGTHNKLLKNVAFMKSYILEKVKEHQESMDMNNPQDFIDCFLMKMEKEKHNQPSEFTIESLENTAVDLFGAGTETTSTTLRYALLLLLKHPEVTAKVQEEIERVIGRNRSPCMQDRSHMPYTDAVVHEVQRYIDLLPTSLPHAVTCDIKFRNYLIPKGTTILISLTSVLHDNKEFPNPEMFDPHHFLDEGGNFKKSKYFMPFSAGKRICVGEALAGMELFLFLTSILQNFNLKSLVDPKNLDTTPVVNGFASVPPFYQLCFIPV
Sequence of D(3) dopamine receptor (Homo sapiens) (P35462 whole entry): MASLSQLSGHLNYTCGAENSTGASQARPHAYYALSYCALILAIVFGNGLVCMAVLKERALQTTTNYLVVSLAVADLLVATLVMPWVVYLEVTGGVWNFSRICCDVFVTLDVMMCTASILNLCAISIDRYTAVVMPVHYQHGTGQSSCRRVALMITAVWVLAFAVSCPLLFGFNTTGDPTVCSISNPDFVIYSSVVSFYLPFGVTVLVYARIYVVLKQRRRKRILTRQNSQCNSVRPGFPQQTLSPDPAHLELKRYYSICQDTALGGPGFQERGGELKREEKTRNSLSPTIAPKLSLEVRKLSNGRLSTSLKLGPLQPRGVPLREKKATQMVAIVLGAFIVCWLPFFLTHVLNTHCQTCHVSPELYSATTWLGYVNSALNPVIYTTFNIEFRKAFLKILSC
Sequence of Cytochrome P450 2D6 (P10635 whole entry): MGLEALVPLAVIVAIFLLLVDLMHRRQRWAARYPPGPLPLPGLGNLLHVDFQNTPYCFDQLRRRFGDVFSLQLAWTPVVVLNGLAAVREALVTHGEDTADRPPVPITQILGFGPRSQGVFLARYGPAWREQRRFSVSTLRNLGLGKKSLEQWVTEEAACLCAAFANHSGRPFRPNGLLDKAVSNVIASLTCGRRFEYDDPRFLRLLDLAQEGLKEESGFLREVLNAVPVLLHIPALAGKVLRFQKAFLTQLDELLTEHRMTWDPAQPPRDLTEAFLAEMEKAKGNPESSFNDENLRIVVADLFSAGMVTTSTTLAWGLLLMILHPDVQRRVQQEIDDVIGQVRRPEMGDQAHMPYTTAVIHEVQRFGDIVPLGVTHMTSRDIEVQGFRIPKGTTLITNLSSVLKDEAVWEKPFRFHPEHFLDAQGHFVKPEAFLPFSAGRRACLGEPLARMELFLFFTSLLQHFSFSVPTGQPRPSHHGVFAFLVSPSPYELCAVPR
Sequence of hERG (KCNH2) (Q12809 whole entry): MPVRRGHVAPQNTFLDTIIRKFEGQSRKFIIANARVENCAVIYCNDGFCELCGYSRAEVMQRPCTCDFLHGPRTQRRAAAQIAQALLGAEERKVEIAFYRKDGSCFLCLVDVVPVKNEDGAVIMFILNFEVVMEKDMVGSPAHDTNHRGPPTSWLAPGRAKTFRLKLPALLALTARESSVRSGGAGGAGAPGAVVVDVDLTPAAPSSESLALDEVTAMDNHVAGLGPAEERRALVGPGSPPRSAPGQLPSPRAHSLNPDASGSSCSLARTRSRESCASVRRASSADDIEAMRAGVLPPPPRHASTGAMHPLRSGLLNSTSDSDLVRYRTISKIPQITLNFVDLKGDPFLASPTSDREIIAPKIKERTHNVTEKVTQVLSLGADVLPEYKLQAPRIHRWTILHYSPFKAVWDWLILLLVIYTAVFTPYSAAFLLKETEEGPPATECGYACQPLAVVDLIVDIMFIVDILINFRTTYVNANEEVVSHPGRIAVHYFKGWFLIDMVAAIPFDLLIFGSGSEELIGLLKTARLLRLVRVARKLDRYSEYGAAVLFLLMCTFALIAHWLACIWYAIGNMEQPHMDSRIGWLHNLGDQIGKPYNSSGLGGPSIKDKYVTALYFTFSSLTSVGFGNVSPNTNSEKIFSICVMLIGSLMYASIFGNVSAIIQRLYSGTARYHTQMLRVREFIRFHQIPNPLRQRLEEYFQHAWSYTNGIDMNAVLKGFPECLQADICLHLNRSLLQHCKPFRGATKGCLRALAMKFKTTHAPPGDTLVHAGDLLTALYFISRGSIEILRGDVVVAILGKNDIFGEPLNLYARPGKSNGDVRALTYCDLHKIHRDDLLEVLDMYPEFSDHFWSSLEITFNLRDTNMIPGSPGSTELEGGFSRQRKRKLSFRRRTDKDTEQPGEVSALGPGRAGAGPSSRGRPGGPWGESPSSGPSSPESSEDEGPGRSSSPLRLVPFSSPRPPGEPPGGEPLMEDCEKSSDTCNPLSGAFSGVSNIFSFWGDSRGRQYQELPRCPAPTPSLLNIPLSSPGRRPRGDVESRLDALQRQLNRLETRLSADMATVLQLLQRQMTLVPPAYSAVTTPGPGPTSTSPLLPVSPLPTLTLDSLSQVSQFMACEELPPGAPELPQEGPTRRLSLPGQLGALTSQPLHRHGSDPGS
Sequence of Cytochrome P450 2C19 (P33261 whole entry): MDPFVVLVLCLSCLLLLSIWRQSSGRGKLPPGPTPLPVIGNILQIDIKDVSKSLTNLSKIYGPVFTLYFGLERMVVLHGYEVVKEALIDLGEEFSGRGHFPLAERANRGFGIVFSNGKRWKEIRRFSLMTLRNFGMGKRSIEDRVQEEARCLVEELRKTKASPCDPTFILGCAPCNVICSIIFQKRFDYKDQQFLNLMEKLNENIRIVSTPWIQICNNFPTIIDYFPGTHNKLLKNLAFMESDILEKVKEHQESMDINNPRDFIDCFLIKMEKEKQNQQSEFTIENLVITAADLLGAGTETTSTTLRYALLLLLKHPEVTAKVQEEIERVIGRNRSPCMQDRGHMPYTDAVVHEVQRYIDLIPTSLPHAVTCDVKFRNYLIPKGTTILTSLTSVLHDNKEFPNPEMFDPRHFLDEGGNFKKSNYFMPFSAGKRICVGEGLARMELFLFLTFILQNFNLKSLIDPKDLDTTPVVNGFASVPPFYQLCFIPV
Sequence of Cytochrome P450 3A4 (P08684 whole entry): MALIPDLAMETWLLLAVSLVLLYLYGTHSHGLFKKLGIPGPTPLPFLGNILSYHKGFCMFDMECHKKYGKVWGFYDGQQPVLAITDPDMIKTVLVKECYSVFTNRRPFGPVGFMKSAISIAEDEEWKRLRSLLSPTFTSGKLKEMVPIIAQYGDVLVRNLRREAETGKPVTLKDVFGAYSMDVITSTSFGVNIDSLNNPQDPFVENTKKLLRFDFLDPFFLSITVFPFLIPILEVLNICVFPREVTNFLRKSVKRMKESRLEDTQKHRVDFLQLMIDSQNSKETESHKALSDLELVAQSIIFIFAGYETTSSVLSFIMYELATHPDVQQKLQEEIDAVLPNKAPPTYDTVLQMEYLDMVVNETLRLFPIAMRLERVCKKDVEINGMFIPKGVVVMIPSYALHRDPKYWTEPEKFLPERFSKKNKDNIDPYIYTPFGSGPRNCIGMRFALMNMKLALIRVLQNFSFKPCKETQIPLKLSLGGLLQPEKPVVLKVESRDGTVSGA

For `O=C1CC(=O)N(Cc2ccccc2)C(=O)N1CCc1ccccc1`, the EC50 (PC-12 [1]) was 1900 nM.
For `O=C1CC(=O)N(CCc2ccc(Cl)cc2)C(=O)N1CCc1ccccc1`, the EC50 (PC-12 [1]) was 1190 nM.
With `COc1ccc(C=C2C(=O)N(C3CCCCC3)C(=O)N(C3CCCCC3)C2=O)c(OC)c1` the EC50 (PC-12 [1]) was 2580 nM.
With `O=C1CC(=O)N(CCc2ccccc2)C(=O)N1CCc1ccccc1` the Papp (Caco-2 [2]) was 26 ×10⁻⁶ cm/s, the IC50 (Cytochrome P450 2D6) was > 50000 nM and the AUC/dose (Rattus norvegicus [3]) was 126 ng·h/mL. The inhibition [4] was 41%, the Activity (PC-12 [5]) was “Dose-dependent effect” and the IC50 (Cytochrome P450 2C19) was > 50000 nM. The PPB (Plasma [6]) was 95%, the Activity (PC-12 [7]) was “Active” and the inhibition [8] was 19%. For the same compound, the IC50 (Cytochrome P450 1A2) was > 50000 nM, the PPB (Plasma [9]) was 90% and the inhibition at 10 µM (hERG (KCNH2)) was 4.9%. For the same compound, the AUClast (Rattus norvegicus [10]) was 121 ng·h/mL, the IC50 (Cytochrome P450 2C9) was > 50000 nM and the inhibition [11] was 20%. The inhibition [12] was 21%, the AUC/dose (Rattus norvegicus [13]) was 124 ng·h/mL and the Tmax (Rattus norvegicus [14]) was 45 min. The IC50 (Cytochrome P450 3A4) was > 50000 nM, the t1/2 (Liver) was 39 min and the EC50 (PC-12 [1]) was 1680 nM. It also gave a t1/2 (Rattus norvegicus [15]) of 57 min, a t1/2 (Rattus norvegicus [16]) of 84 min and an F (Rattus norvegicus [17]) of 98%. For the same compound, the t1/2 (Liver microsomes) was 61 min, the Cmax (Rattus norvegicus [18]) was 55 ng/mL and the Vdss (Rattus norvegicus [19]) was 9 L/kg. The Activity (PC-12 [20]) was “Dose-dependent effect” and the t1/2 (Plasma [21]) was 60.5 min.
In the case of `O=c1cc(Cl)n(CCc2ccccc2)c(=O)n1CCc1ccccc1`, the EC50 (PC-12 [1]) is reported as > 32000 nM.
With `O=C1CC(=O)N(C2CCCCC2)C(=O)N1` the EC50 (PC-12 [1]) was > 32000 nM.
Work on `O=C1CC(=O)N(CCC(c2ccccc2)c2ccccc2)C(=O)N1CCC(c1ccccc1)c1ccccc1` yielded an EC50 (PC-12 [1]) of 1390 nM.
`O=C1CC(=O)N(CCOc2ccccc2)C(=O)N1CCOc1ccccc1` showed an EC50 (PC-12 [1]) of 3260 nM.
Compound `Cc1cc(C=C2C(=O)N(CCc3ccccc3)C(=O)N(CCc3ccccc3)C2=O)c(C)n1-c1ccccc1` has an EC50 (PC-12 [1]) of 870 nM.
For `O=C1CC(=O)N(CCc2cccs2)C(=O)N1CCc1ccc(F)cc1`, the EC50 (PC-12 [1]) was 2160 nM.
With `CCCCCCCCN1C(=O)CC(=O)N(CCc2ccccc2)C1=O` the EC50 (PC-12 [1]) was 710 nM.
With `CC1(C)C(=O)N(CCc2ccccc2)C(=O)N(CCc2ccccc2)C1=O` the EC50 (PC-12 [1]) was > 32000 nM.
Compound `CC(C)OCCN1C(=O)CC(=O)N(CCc2ccc(F)cc2)C1=O` has an EC50 (PC-12 [1]) of 2970 nM.
In the case of `O=C1CC(=O)N(C2CCc3ccccc32)C(=O)N1C1CCc2ccccc21` (stereo not given), the EC50 (PC-12 [1]) is reported as > 32000 nM.
For `CCCCN1C(=O)CC(=O)NC1=O`, the EC50 (PC-12 [1]) was > 32000 nM.
In the case of `O=C1CC(=O)N(C2CCCCC2)C(=O)N1C1CCCCC1`, the EC50 (PC-12 [1]) is reported as 2970 nM.
Compound `O=C1CC(=O)N(CCc2ccccc2)C(=O)N1CCC1=CCCCC1` has an EC50 (PC-12 [1]) of 1740 nM.
For `O=C1CC(=O)N(CCc2ccc(F)cc2)C(=O)N1CCOc1ccccc1`, the EC50 (PC-12 [1]) was 1320 nM.
For `O=C1C(=Cc2ccc[nH]2)C(=O)N(CCc2ccccc2)C(=O)N1CCc1ccccc1`, the EC50 (PC-12 [1]) was 3550 nM.
In the case of `Cc1ccccc1C=C1C(=O)N(CCc2ccccc2)C(=O)N(CCc2ccccc2)C1=O`, the EC50 (PC-12 [1]) is reported as 2230 nM.
In the case of `CCOCCN1C(=O)CC(=O)N(CCOCC)C1=O`, the EC50 (PC-12 [1]) is reported as 7750 nM.
With `O=C1C(=O)N(C2CCCCC2)C(=O)N1C1CCCCC1` the EC50 (PC-12 [1]) was > 32000 nM.
`O=C1CC(=O)N(CCc2ccccc2F)C(=O)N1CCc1ccccc1F` gave an EC50 (PC-12 [1]) of 3290 nM.
For `O=C1CC(=O)N(CCCCc2ccccc2)C(=O)N1CCCCc1ccccc1`, the Papp (Caco-2 [2]) was 30.2 ×10⁻⁶ cm/s, the efflux ratio [22] was 3.3 and the solubility [23] was 105 µM (≈ 41.2 µg/mL). For the same compound, the t1/2 (Liver) was 11 min, the EC50 (PC-12 [1]) was 680 nM and the Papp (Caco-2 [24]) was 9.2 ×10⁻⁶ cm/s. It also gave a t1/2 (Liver microsomes) of 15 min and a t1/2 (Plasma [21]) of 21.8 min.
`O=C1CC(=O)N(CCc2cccs2)C(=O)N1CCc1cccs1` showed an EC50 (PC-12 [1]) of 2160 nM.
